# According to patent publication US20260001928A1 (CORTERIA PHARMACEUTICALS, priority 2022, published 2026):
# *1 amine or outer side, *2 acyl side, *3 side chain or, on linkers, in order; H or OH if unused. Where a SMILES comes first, the peptide text is derived from it. Side-chain parts run from the residue outwards. [ ]: non-standard residue; d: D form. The star is where a group is joined. C20 diacid = O=C(O)CCCCCCCCCCCCCCCCCCC(=O)*; C18 diacid = O=C(O)CCCCCCCCCCCCCCCCC(=O)*; C16 diacid = O=C(O)CCCCCCCCCCCCCCC(=O)*; γGlu = O=C(O)[C@H](CCC(=O)[*:2])N[*:1]; NMeI = CC[C@H](C)[C@H](NC)C(=O)O; AEEA = NCCOCCOCC(=O)O; Aib = CC(C)(N)C(=O)O
# Test system: human LAD2 cells
# Assay type: cell-based
# Outline: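 Mast cell degranulation: cells exposed to peptides for 30 min at final concentrations from 50, 100 or 300 down to 0.1 or 0.001 μM, with 0.5% DMSO where used, in biological duplicates. β-hexosaminidase release was read with a fluorogenic 4-methylumbelliferyl substrate as supernatant/(supernatant + Triton-lysed pellet) × 100. EC50 came from a 4-parameter sigmoidal fit.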
row,EC50,Structure (SMILES)
1,32.9 µM,CC[C@H](C)[C@H](N)C(=O)N[C@H](C(=O)N[C@@H](CC(C)C)C(=O)N[C@@H](CO)C(=O)N[C@@H](CC(C)C)C(=O)N[C@@H](CC(=O)O)C(=O)N[C@H](C(=O)N1CCC[C@H]1C(=O)N[C@H](C(=O)N[C@@H](CCCCN)C(=O)N[C@@H](CC(C)C)C(=O)N[C@@H](CCCCNC(=O)CC[C@H](NC(=O)CCCCCCCCCCCCCCC(=O)O)C(=O)O)C(=O)N[C@@H](CCC(N)=O)C(=O)N[C@H](C(=O)N[C@@H](CC(C)C)C(=O)N[C@@H](CC(C)C)C(=O)N[C@@H](CCCCN)C(=O)N[C@@H](CCC(N)=O)C(=O)N[C@@H](CCC(=O)O)C(=O)N[C@@H](CCCNC(=N)N)C(=O)N[C@@H](CCC(N)=O)C(=O)N[C@@H](CCCCN)C(=O)N[C@@H](CCCCN)C(=O)N[C@@H](CCC(N)=O)C(=O)N[C@@H](CCCNC(=N)N)C(=O)N[C@@H](CCC(=O)O)C(=O)N[C@@H](CCC(N)=O)C(=O)N[C@@H](C)C(=O)N[C@@H](CCC(=O)O)C(=O)N[C@@H](CCCCN)C(=O)N[C@@H](CC(N)=O)C(=O)N[C@@H](CCCCN)C(=O)N[C@@H](CCC(N)=O)C(=O)N[C@H](C(=O)N[C@@H](CC(C)C)C(=O)N[C@@H](CCC(=O)O)C(=O)N[C@@H](CCC(N)=O)C(=O)N[C@H](C(N)=O)C(C)C)[C@@H](C)CC)[C@@H](C)CC)[C@@H](C)CC)C(C)C)C(C)C [151 (comp)] (H-IVLSLDVPIKLK([γGlu-C16 diacid])QILLKQERQKKQREQAEKNKQILEQV-NH2)
2,> 300 µM,CC[C@H](C)[C@H](NC)C(=O)N[C@H](C(=O)N[C@@H](CC(C)C)C(=O)N[C@@H](CO)C(=O)N[C@@H](CC(C)C)C(=O)N[C@@H](CC(=O)O)C(=O)N[C@@H](C(=O)N1CCC[C@H]1C(=O)N[C@H](C(=O)N[C@@H](CCCCN)C(=O)N[C@@H](CC(C)C)C(=O)N[C@@H](CCCCNC(=O)CC[C@H](NC(=O)CCCCCCCCCCCCCCCCCCC(=O)O)C(=O)O)C(=O)N[C@@H](CCCCN)C(=O)N[C@H](C(=O)N[C@@H](CC(C)C)C(=O)N[C@@H](CC(C)C)C(=O)N[C@@H](CCC(=O)O)C(=O)N[C@@H](CCC(N)=O)C(=O)N[C@@H](CCC(=O)O)C(=O)N[C@@H](CCCCN)C(=O)N[C@@H](CCC(N)=O)C(=O)N[C@@H](CCCCN)C(=O)N[C@@H](C)C(=O)N[C@@H](CCC(N)=O)C(=O)N[C@@H](CCCNC(=N)N)C(=O)N[C@@H](CCC(=O)O)C(=O)N[C@@H](CCC(N)=O)C(=O)N[C@@H](C)C(=O)N[C@@H](CCC(=O)O)C(=O)N[C@H](C(=O)N[C@@H](CC(N)=O)C(=O)NC(C)(C)C(=O)N[C@@H](CCC(N)=O)C(=O)N[C@H](C(=O)N[C@@H](CC(C)C)C(=O)N[C@@H](C)C(=O)N[C@@H](CCC(N)=O)C(=O)N[C@H](C(N)=O)C(C)C)[C@@H](C)CC)[C@@H](C)O)[C@@H](C)CC)[C@@H](C)CC)C(C)C)C(C)C [Cmpd 217] (H-[NMeI]VLSLD[dV]PIKLK([γGlu-C20 diacid])KILLEQEKQKAQREQAETN[Aib]QILAQV-NH2)
3,> 300 µM,CC[C@H](C)[C@H](NC(C)=O)C(=O)N[C@H](C(=O)N[C@@H](CC(C)C)C(=O)N[C@@H](CO)C(=O)N[C@@H](CC(C)C)C(=O)N[C@@H](CC(=O)O)C(=O)N[C@@H](C(=O)N1CCC[C@H]1C(=O)N[C@H](C(=O)N[C@@H](CCCCN)C(=O)N[C@@H](CC(C)C)C(=O)N[C@@H](CCCCNC(=O)CC[C@H](NC(=O)CC[C@H](NC(=O)CCCCCCCCCCCCCCCCCCC(=O)O)C(=O)O)C(=O)O)C(=O)N[C@@H](CCCCN)C(=O)N[C@H](C(=O)N[C@@H](CC(C)C)C(=O)N[C@@H](CC(C)C)C(=O)N[C@@H](CCC(=O)O)C(=O)N[C@@H](CCC(N)=O)C(=O)N[C@@H](CCC(=O)O)C(=O)N[C@@H](CCCCN)C(=O)N[C@@H](CCC(N)=O)C(=O)N[C@@H](CCCCN)C(=O)N[C@@H](CCC(=O)O)C(=O)N[C@@H](CCC(N)=O)C(=O)N[C@@H](CCCNC(=N)N)C(=O)N[C@@H](CCC(=O)O)C(=O)N[C@@H](CCC(N)=O)C(=O)N[C@@H](C)C(=O)N[C@@H](CCC(=O)O)C(=O)N[C@H](C(=O)N[C@@H](CC(N)=O)C(=O)NC(C)(C)C(=O)N[C@@H](CCC(N)=O)C(=O)N[C@H](C(=O)N[C@@H](CC(C)C)C(=O)N[C@@H](C)C(=O)N[C@@H](CCC(N)=O)C(=O)N[C@H](C(N)=O)C(C)C)[C@@H](C)CC)[C@@H](C)O)[C@@H](C)CC)[C@@H](C)CC)C(C)C)C(C)C [Cmpd 241] (Ac-IVLSLD[dV]PIKLK([γGlu-γGlu-C20 diacid])KILLEQEKQKEQREQAETN[Aib]QILAQV-NH2)

# Further lines, the compound ahead of its results:
row,Structure (SMILES),EC50
1,CC[C@H](C)[C@H](NC(C)=O)C(=O)N[C@H](C(=O)N[C@@H](CC(C)C)C(=O)N[C@@H](CO)C(=O)N[C@@H](CC(C)C)C(=O)N[C@@H](CC(=O)O)C(=O)N[C@@H](C(=O)N1CCC[C@H]1C(=O)N[C@H](C(=O)N[C@@H](CCCCN)C(=O)N[C@@H](CC(C)C)C(=O)N[C@@H](CCCCNC(=O)CC[C@H](NC(=O)CCCCCCCCCCCCCCC(=O)O)C(=O)O)C(=O)N[C@@H](CCCCN)C(=O)N[C@H](C(=O)N[C@@H](CC(C)C)C(=O)N[C@@H](CC(C)C)C(=O)N[C@@H](CCC(=O)O)C(=O)N[C@@H](CCC(N)=O)C(=O)N[C@@H](CCC(=O)O)C(=O)N[C@@H](CCCCN)C(=O)N[C@@H](CCC(N)=O)C(=O)N[C@@H](CCCCN)C(=O)N[C@@H](CCCCN)C(=O)N[C@@H](CCC(N)=O)C(=O)N[C@@H](C)C(=O)N[C@@H](CCC(=O)O)C(=O)N[C@@H](CCC(N)=O)C(=O)N[C@@H](C)C(=O)N[C@@H](CCC(=O)O)C(=O)N[C@H](C(=O)N[C@@H](CC(N)=O)C(=O)NC(C)(C)C(=O)N[C@@H](CCC(N)=O)C(=O)N[C@H](C(=O)N[C@@H](CC(C)C)C(=O)N[C@@H](C)C(=O)N[C@@H](CCC(N)=O)C(=O)N[C@H](C(N)=O)C(C)C)[C@@H](C)CC)[C@@H](C)O)[C@@H](C)CC)[C@@H](C)CC)C(C)C)C(C)C [Cmpd 167] (Ac-IVLSLD[dV]PIKLK([γGlu-C16 diacid])KILLEQEKQKKQAEQAETN[Aib]QILAQV-NH2),> 50 µM
2,CC[C@H](C)[C@H](NC(C)=O)C(=O)N[C@H](C(=O)N[C@@H](CC(C)C)C(=O)N[C@@H](CO)C(=O)N[C@@H](CC(C)C)C(=O)N[C@@H](CC(=O)O)C(=O)N[C@@H](C(=O)N1CCC[C@H]1C(=O)N[C@H](C(=O)N[C@@H](CCCCN)C(=O)N[C@@H](CC(C)C)C(=O)N[C@@H](CCCCNC(=O)COCCOCCNC(=O)CC[C@H](NC(=O)CCCCCCCCCCCCCCCCCCC(=O)O)C(=O)O)C(=O)N[C@@H](CCCCN)C(=O)N[C@H](C(=O)N[C@@H](CC(C)C)C(=O)N[C@@H](CC(C)C)C(=O)N[C@@H](CCC(=O)O)C(=O)N[C@@H](CCC(N)=O)C(=O)N[C@@H](CCC(=O)O)C(=O)N[C@@H](CCCCN)C(=O)N[C@@H](CCC(N)=O)C(=O)N[C@@H](CCCCN)C(=O)N[C@@H](CCC(=O)O)C(=O)N[C@@H](CCC(N)=O)C(=O)N[C@@H](CCCNC(=N)N)C(=O)N[C@@H](CCC(=O)O)C(=O)N[C@@H](CCC(N)=O)C(=O)N[C@@H](C)C(=O)N[C@@H](CCC(=O)O)C(=O)N[C@H](C(=O)N[C@@H](CC(N)=O)C(=O)NC(C)(C)C(=O)N[C@@H](CCC(N)=O)C(=O)N[C@H](C(=O)N[C@@H](CC(C)C)C(=O)N[C@@H](C)C(=O)N[C@@H](CCC(N)=O)C(=O)N[C@H](C(N)=O)C(C)C)[C@@H](C)CC)[C@@H](C)O)[C@@H](C)CC)[C@@H](C)CC)C(C)C)C(C)C [Cmpd 231] (Ac-IVLSLD[dV]PIKLK([AEEA-γGlu-C20 diacid])KILLEQEKQKEQREQAETN[Aib]QILAQV-NH2),47.5 µM
3,CC[C@H](C)[C@H](NC(C)=O)C(=O)N[C@H](C(=O)N[C@@H](CC(C)C)C(=O)N[C@@H](CO)C(=O)N[C@@H](CC(C)C)C(=O)N[C@@H](CC(=O)O)C(=O)N[C@@H](C(=O)N1CCC[C@H]1C(=O)N[C@H](C(=O)N[C@@H](CCCCN)C(=O)N[C@@H](CC(C)C)C(=O)N[C@@H](CCCCNC(=O)COCCOCCNC(=O)COCCOCCNC(=O)CC[C@H](NC(=O)CCCCCCCCCCCCCCCCCCC(=O)O)C(=O)O)C(=O)N[C@@H](CCCCN)C(=O)N[C@H](C(=O)N[C@@H](CC(C)C)C(=O)N[C@@H](CC(C)C)C(=O)N[C@@H](CCC(=O)O)C(=O)N[C@@H](CCC(N)=O)C(=O)N[C@@H](CCC(=O)O)C(=O)N[C@@H](CCCCN)C(=O)N[C@@H](CCC(N)=O)C(=O)N[C@@H](CCCCN)C(=O)N[C@@H](CCC(=O)O)C(=O)N[C@@H](CCC(N)=O)C(=O)N[C@@H](CCCNC(=N)N)C(=O)N[C@@H](CCC(=O)O)C(=O)N[C@@H](CCC(N)=O)C(=O)N[C@@H](C)C(=O)N[C@@H](CCC(=O)O)C(=O)N[C@H](C(=O)N[C@@H](CC(N)=O)C(=O)NC(C)(C)C(=O)N[C@@H](CCC(N)=O)C(=O)N[C@H](C(=O)N[C@@H](CC(C)C)C(=O)N[C@@H](C)C(=O)N[C@@H](CCC(N)=O)C(=O)N[C@H](C(N)=O)C(C)C)[C@@H](C)CC)[C@@H](C)O)[C@@H](C)CC)[C@@H](C)CC)C(C)C)C(C)C [Cmpd 236] (Ac-IVLSLD[dV]PIKLK([AEEA-AEEA-γGlu-C20 diacid])KILLEQEKQKEQREQAETN[Aib]QILAQV-NH2),74.1 µM
4,CC[C@H](C)[C@H](NC)C(=O)N[C@H](C(=O)N[C@@H](CC(C)C)C(=O)N[C@@H](CO)C(=O)N[C@@H](CC(C)C)C(=O)N[C@@H](CC(=O)O)C(=O)N[C@@H](C(=O)N1CCC[C@H]1C(=O)N[C@H](C(=O)N[C@@H](CCCCN)C(=O)N[C@@H](CC(C)C)C(=O)N[C@@H](CCCCNC(=O)CC[C@H](NC(=O)CCCCCCCCCCCCCCCCC(=O)O)C(=O)O)C(=O)N[C@@H](CCCCN)C(=O)N[C@H](C(=O)N[C@@H](CC(C)C)C(=O)N[C@@H](CC(C)C)C(=O)N[C@@H](CCC(=O)O)C(=O)N[C@@H](CCC(N)=O)C(=O)N[C@@H](CCC(=O)O)C(=O)N[C@@H](CCCCN)C(=O)N[C@@H](CCC(N)=O)C(=O)N[C@@H](CCCCN)C(=O)NC(C)(C)C(=O)N[C@@H](CCC(N)=O)C(=O)N[C@@H](CCCNC(=N)N)C(=O)N[C@@H](CCC(=O)O)C(=O)N[C@@H](CCC(N)=O)C(=O)N[C@@H](C)C(=O)N[C@@H](CCC(=O)O)C(=O)N[C@H](C(=O)N[C@@H](CC(N)=O)C(=O)NC(C)(C)C(=O)N[C@@H](CCC(N)=O)C(=O)N[C@H](C(=O)N[C@@H](CC(C)C)C(=O)N[C@@H](C)C(=O)N[C@@H](CCC(N)=O)C(=O)N[C@H](C(N)=O)C(C)C)[C@@H](C)CC)[C@@H](C)O)[C@@H](C)CC)[C@@H](C)CC)C(C)C)C(C)C [Cmpd 145] (H-[NMeI]VLSLD[dV]PIKLK([γGlu-C18 diacid])KILLEQEKQK[Aib]QREQAETN[Aib]QILAQV-NH2),> 100 µM
